Paper PMC4303209, “A novel phosphatidylinositol 3-kinase (PI3K) inhibitor directs a potent FOXO-dependent, p53-independent cell cycle arrest phenotype characterized by the differential induction of a subset of FOXO-regulated genes” (Breast Cancer Research : BCR, 2014)
Entries after “also recorded” stand apart in the source; their conditions may differ.

How the values were obtained:
[1] = tested on: total p53; experiment: Immunoblot of total p53
Procedure: Sub-confluent cells were incubated under the conditions indicated in each figure and washed twice with phosphate-buffered saline (PBS) prior to lysis. RIPA lysis buffer was added (50 mM TrisHCl, 150 mM NaCl, 1% NP-40, 2 mM Na3VO4, 100 mM NaF, 20 mM Na4P2O7 and 1x protease inhibitor cocktail (Roche Molecular Biochemicals, Indianapolis, IN, USA). The membranes were incubated overnight for total AKT, phospho-serine-473-AKT, total p53 (DO1) (Santa Cruz Biotechnology, Dallas, TX, USA), phospho-threonine 32-FOXO3a (Merck Millipore, Darmstadt, Germany) and α-tubulin (Sigma-Aldrich). Secondary antibodies used were anti-mouse, goat or rabbit immunoglobulin G (IgG)-horseradish peroxidase (HRP) (Santa Cruz Biotechnology) as appropriate. Visualisation of bands was achieved using ChemiDoc imaging system (BioRad Laboratories Inc, Hercules, CA, USA) after membrane treatment with Ecl + (Amersham, Little Chalfont, UK).

[2] = tested on: MCF-7 breast cancer cells; experiment: Quantitative real time PCR (qRT-PCR) of selected genes; type: cell-based, human
Procedure: Total RNA was extracted by using Tri-reagent (Sigma-Aldrich). Real-time PCR was performed on a CFX-96 PCR machine (BioRad) using the SsoFastSYBR™ green master mix (BioRad) and following the manufacturer’s guidelines. Data was analysed as described in [29] using the 2^-ΔΔCT methodology.
Figure 4 Genes regulated by FOXO transcription factor and validation of key differentially regulated genes. […] Gene expression in MCF-7 breast cancer cells treated at six and twelve hours with (B) 10 nM ETP-45658 or (C) 10 nM PI-103. In each graph, error bars indicate +/− standard deviation with each gene and condition evaluated in triplicate from N = 3 independent experiments. For each analysis P values are shown (<0.05 is considered significant).
Our genome-wide array and in vitro studies have elucidated that the predominant pathway activated following exposure to ETP-45658 (as well as following PI-103 treatment) was FOXO-mediated cell cycle arrest. […] To strengthen our findings further, we validated our genome-wide array results by quantitative real-time PCR (qRT-PCR). Based on our gene expression profiling data, we selected 11 differentially regulated key genes. […] In our last group, we selected the cyclin-dependent kinase inhibitor 1A (p21), which is regulated by both FOXO and p53, BCL2 binding component 3 (PUMA) and BCL2-associated X (BAX) that are regulated by p53. MCF-7 breast cancer cells were treated with ETP-45658 and six or twelve hours post treatment the total RNA was extracted. We evaluated the expression profile of each gene (normalised to GAPDH using the 2^-ΔΔCT method described in our Materials and methods section) (Figure 4B). […] This response was conserved between the MCF-7 breast cancer cell line (as we would predict based on our array studies) as well as the U2OS osteosarcoma cell line (data not shown).

SMILES	accumulation of total p53 [1]	NISCH expression (array and qRT-PCR) [2]	qRT-PCR induction of p53-dependent genes [2]	qRT-PCR CCND1 transcription ([2]; 10 nM)	qRT-PCR expression of CCNG2, Cited2 and BRCA1 ([2]; 10 nM, six or twelve hours)	qRT-PCR TRAIL, FASLG or BCL2L11 transcription ([2]; six hours post treatment)	qRT-PCR TRAIL, FASLG or BCL2L11 transcription ([2]; twelve hours post treatment)
Cn1ncc2c(N3CCOCC3)nc(-c3cccc(O)c3)nc21 [ETP-45658]	little to no p53 accumulation; also recorded: neither ETP-45658 (nor PI-103) triggered an accumulation	significantly upregulated	no significant induction	significantly reduced	highly significant induction	no significant change	slight increase (less than two-fold)
Oc1cccc(-c2nc(N3CCOCC3)c3oc4ncccc4c3n2)c1 [PI-103]	neither ETP-45658 (nor PI-103) triggered an accumulation	downregulated		significantly reduced			
